Key:
Assay in all cases: relative viability (nuclei count vs DMSO), 5 days (fraction); higher = more cells survive
Ponatinib + Phenformin = compound: Cc1ccc(C(=O)Nc2ccc(CN3CCN(C)CC3)c(C(F)(F)F)c2)cc1C#Cc1cnc2cccnn12 [Ponatinib] + N=C(N)NC(=N)NCCc1ccccc1 [Phenformin] (partner 250 µM)
Outline: (§1)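 Lung cancer cell lines in 1536-well plates were dosed by pin tool the day after seeding, either with one drug alone or with a fixed anchor-drug dose plus five library-drug doses (not always all listed) in √10 steps. After 5 days, cells were fixed and their nuclei stained in one step (final 0.05% Triton X-100, 1% formaldehyde, 1 ug/ml Hoechst), then counted on 4× images. Relative viability is the nuclei count in treated wells divided by that in vehicle wells. Values are medians of duplicate plates.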

Pazopanib + Navitoclax = compound: Cc1ccc(Nc2nccc(N(C)c3ccc4c(C)n(C)nc4c3)n2)cc1S(N)(=O)=O [Pazopanib] + CC1(C)CCC(c2ccc(Cl)cc2)=C(CN2CCN(c3ccc(C(=O)NS(=O)(=O)c4ccc(N[C@H](CCN5CCOCC5)CSc5ccccc5)c(S(=O)(=O)C(F)(F)F)c4)cc3)CC2)C1 [Navitoclax] (partner 0.5 µM)
Outline: as §1

Ponatinib + Trametinib = compound: Cc1ccc(C(=O)Nc2ccc(CN3CCN(C)CC3)c(C(F)(F)F)c2)cc1C#Cc1cnc2cccnn12 [Ponatinib] + CC(=O)Nc1cccc(-n2c(=O)n(C3CC3)c(=O)c3c(Nc4ccc(I)cc4F)n(C)c(=O)c(C)c32)c1 [Trametinib] (partner 0.02 µM)
Outline: as §1

Ponatinib + Decitabine = compound: Cc1ccc(C(=O)Nc2ccc(CN3CCN(C)CC3)c(C(F)(F)F)c2)cc1C#Cc1cnc2cccnn12 [Ponatinib] + Nc1ncn([C@H]2C[C@H](O)[C@@H](CO)O2)c(=O)n1 [Decitabine] (partner 2 µM)
Outline: as §1

For NCI-H441, the relative viability (Ponatinib + Phenformin; first compound 0.002 µM) was 0.818, the relative viability (Ponatinib + Phenformin; first compound 0.006325 µM) was 0.866 and the relative viability (Ponatinib + Phenformin; first compound 0.06325 µM) was 0.941. The relative viability (Ponatinib + Phenformin; first compound 0.2 µM) was 0.697, the relative viability (Pazopanib + Navitoclax; first compound 0.01 µM) was 0.516 and the relative viability (Pazopanib + Navitoclax; first compound 0.03162 µM) was 0.493. The relative viability (Pazopanib + Navitoclax; first compound 0.1 µM) was 1.12, the relative viability (Pazopanib + Navitoclax; first compound 0.3162 µM) was 0.553 and the relative viability (Pazopanib + Navitoclax; first compound 1 µM) was 0.765. For the same cell line, the relative viability (Ponatinib + Trametinib; first compound 0.002 µM) was 0.389, the relative viability (Ponatinib + Trametinib; first compound 0.006325 µM) was 0.435 and the relative viability (Ponatinib + Trametinib; first compound 0.06325 µM) was 0.485. It also gave a relative viability (Ponatinib + Trametinib; first compound 0.2 µM) of 0.382, a relative viability (Ponatinib + Decitabine; first compound 0.002 µM) of 0.228 and a relative viability (Ponatinib + Decitabine; first compound 0.006325 µM) of 0.246. For the same cell line, the relative viability (Ponatinib + Decitabine; first compound 0.06325 µM) was 0.271 and the relative viability (Ponatinib + Decitabine; first compound 0.2 µM) was 0.267.
PC-14 gave a relative viability (Ponatinib + Phenformin; first compound 0.002 µM) of 0.443, a relative viability (Ponatinib + Phenformin; first compound 0.006325 µM) of 0.619 and a relative viability (Ponatinib + Phenformin; first compound 0.06325 µM) of 0.665. For the same cell line, the relative viability (Ponatinib + Phenformin; first compound 0.2 µM) was 0.605, the relative viability (Pazopanib + Navitoclax; first compound 0.01 µM) was 1.06 and the relative viability (Pazopanib + Navitoclax; first compound 0.03162 µM) was 1.06. It also gave a relative viability (Pazopanib + Navitoclax; first compound 0.1 µM) of 1.09, a relative viability (Pazopanib + Navitoclax; first compound 0.3162 µM) of 0.954 and a relative viability (Pazopanib + Navitoclax; first compound 1 µM) of 0.948. For the same cell line, the relative viability (Ponatinib + Trametinib; first compound 0.002 µM) was 0.701, the relative viability (Ponatinib + Trametinib; first compound 0.006325 µM) was 0.727 and the relative viability (Ponatinib + Trametinib; first compound 0.06325 µM) was 0.859. The relative viability (Ponatinib + Trametinib; first compound 0.2 µM) was 0.794, the relative viability (Ponatinib + Decitabine; first compound 0.002 µM) was 0.214 and the relative viability (Ponatinib + Decitabine; first compound 0.006325 µM) was 0.222. The relative viability (Ponatinib + Decitabine; first compound 0.06325 µM) was 0.232 and the relative viability (Ponatinib + Decitabine; first compound 0.2 µM) was 0.214.
Work on NCI-H1648 yielded a relative viability (Ponatinib + Trametinib; first compound 0.002 µM) of 0.478, a relative viability (Ponatinib + Trametinib; first compound 0.006325 µM) of 0.361 and a relative viability (Ponatinib + Trametinib; first compound 0.06325 µM) of 0.432. For the same cell line, the relative viability (Ponatinib + Trametinib; first compound 0.2 µM) was 0.346, the relative viability (Ponatinib + Decitabine; first compound 0.002 µM) was 0.464 and the relative viability (Ponatinib + Decitabine; first compound 0.006325 µM) was 0.615. The relative viability (Ponatinib + Decitabine; first compound 0.06325 µM) was 0.429 and the relative viability (Ponatinib + Decitabine; first compound 0.2 µM) was 0.358.
Cell Line NCI-H661 has a relative viability (Ponatinib + Phenformin; first compound 0.002 µM) of 0.277, a relative viability (Ponatinib + Phenformin; first compound 0.006325 µM) of 0.258 and a relative viability (Ponatinib + Phenformin; first compound 0.06325 µM) of 0.278. The relative viability (Ponatinib + Phenformin; first compound 0.2 µM) was 0.264, the relative viability (Ponatinib + Trametinib; first compound 0.002 µM) was 0.544 and the relative viability (Ponatinib + Trametinib; first compound 0.006325 µM) was 0.556. The relative viability (Ponatinib + Trametinib; first compound 0.06325 µM) was 0.524, the relative viability (Ponatinib + Trametinib; first compound 0.2 µM) was 0.453 and the relative viability (Ponatinib + Decitabine; first compound 0.002 µM) was 0.524. For the same cell line, the relative viability (Ponatinib + Decitabine; first compound 0.006325 µM) was 0.537, the relative viability (Ponatinib + Decitabine; first compound 0.06325 µM) was 0.562 and the relative viability (Ponatinib + Decitabine; first compound 0.2 µM) was 0.515.
NCI-H650 was tested, and the relative viability (Ponatinib + Phenformin; first compound 0.002 µM) was 0.407, the relative viability (Ponatinib + Phenformin; first compound 0.006325 µM) was 0.426 and the relative viability (Ponatinib + Phenformin; first compound 0.06325 µM) was 0.438. For the same cell line, the relative viability (Ponatinib + Phenformin; first compound 0.2 µM) was 0.419, the relative viability (Ponatinib + Trametinib; first compound 0.002 µM) was 0.929 and the relative viability (Ponatinib + Trametinib; first compound 0.006325 µM) was 0.962. For the same cell line, the relative viability (Ponatinib + Trametinib; first compound 0.06325 µM) was 0.949, the relative viability (Ponatinib + Trametinib; first compound 0.2 µM) was 0.83 and the relative viability (Ponatinib + Decitabine; first compound 0.002 µM) was 0.296. For the same cell line, the relative viability (Ponatinib + Decitabine; first compound 0.006325 µM) was 0.319, the relative viability (Ponatinib + Decitabine; first compound 0.06325 µM) was 0.341 and the relative viability (Ponatinib + Decitabine; first compound 0.2 µM) was 0.299.
For A549, the relative viability (Ponatinib + Phenformin; first compound 0.002 µM) was 0.161, the relative viability (Ponatinib + Phenformin; first compound 0.006325 µM) was 0.142 and the relative viability (Ponatinib + Phenformin; first compound 0.06325 µM) was 0.142. The relative viability (Ponatinib + Phenformin; first compound 0.2 µM) was 0.147, the relative viability (Pazopanib + Navitoclax; first compound 0.01 µM) was 1.16 and the relative viability (Pazopanib + Navitoclax; first compound 0.03162 µM) was 1.18. The relative viability (Pazopanib + Navitoclax; first compound 0.1 µM) was 1.21, the relative viability (Pazopanib + Navitoclax; first compound 0.3162 µM) was 1.21 and the relative viability (Pazopanib + Navitoclax; first compound 1 µM) was 1.26. It also gave a relative viability (Ponatinib + Decitabine; first compound 0.002 µM) of 0.238, a relative viability (Ponatinib + Decitabine; first compound 0.006325 µM) of 0.294 and a relative viability (Ponatinib + Decitabine; first compound 0.06325 µM) of 0.324. The relative viability (Ponatinib + Decitabine; first compound 0.2 µM) was 0.295.
With NCI-H1563 the relative viability (Ponatinib + Phenformin; first compound 0.002 µM) was 0.587, the relative viability (Ponatinib + Phenformin; first compound 0.006325 µM) was 0.649 and the relative viability (Ponatinib + Phenformin; first compound 0.06325 µM) was 0.655. The relative viability (Ponatinib + Phenformin; first compound 0.2 µM) was 0.525.
In the case of NCI-H522, the relative viability (Ponatinib + Phenformin; first compound 0.002 µM) is reported as 0.697, the relative viability (Ponatinib + Phenformin; first compound 0.006325 µM) is reported as 0.657 and the relative viability (Ponatinib + Phenformin; first compound 0.06325 µM) is reported as 0.653. The relative viability (Ponatinib + Phenformin; first compound 0.2 µM) was 0.56, the relative viability (Ponatinib + Trametinib; first compound 0.002 µM) was 0.739 and the relative viability (Ponatinib + Trametinib; first compound 0.006325 µM) was 0.876. It also gave a relative viability (Ponatinib + Trametinib; first compound 0.06325 µM) of 0.594, a relative viability (Ponatinib + Trametinib; first compound 0.2 µM) of 0.629 and a relative viability (Ponatinib + Decitabine; first compound 0.002 µM) of 0.615. The relative viability (Ponatinib + Decitabine; first compound 0.006325 µM) was 0.64, the relative viability (Ponatinib + Decitabine; first compound 0.06325 µM) was 0.615 and the relative viability (Ponatinib + Decitabine; first compound 0.2 µM) was 0.609.
IA-LM gave a relative viability (Pazopanib + Navitoclax; first compound 0.01 µM) of 0.815, a relative viability (Pazopanib + Navitoclax; first compound 0.03162 µM) of 0.782 and a relative viability (Pazopanib + Navitoclax; first compound 0.1 µM) of 0.778. The relative viability (Pazopanib + Navitoclax; first compound 0.3162 µM) was 0.792 and the relative viability (Pazopanib + Navitoclax; first compound 1 µM) was 0.625.
For NCI-H1703, the relative viability (Pazopanib + Navitoclax; first compound 0.01 µM) was 0.865, the relative viability (Pazopanib + Navitoclax; first compound 0.03162 µM) was 0.925 and the relative viability (Pazopanib + Navitoclax; first compound 0.1 µM) was 0.344. It also gave a relative viability (Pazopanib + Navitoclax; first compound 0.3162 µM) of 0.256 and a relative viability (Pazopanib + Navitoclax; first compound 1 µM) of 0.287.
LCLC-103H was tested, and the relative viability (Ponatinib + Phenformin; first compound 0.002 µM) was 0.275, the relative viability (Ponatinib + Phenformin; first compound 0.006325 µM) was 0.347 and the relative viability (Ponatinib + Phenformin; first compound 0.06325 µM) was 0.312. The relative viability (Ponatinib + Phenformin; first compound 0.2 µM) was 0.295, the relative viability (Ponatinib + Trametinib; first compound 0.002 µM) was 0.678 and the relative viability (Ponatinib + Trametinib; first compound 0.006325 µM) was 0.718. The relative viability (Ponatinib + Trametinib; first compound 0.06325 µM) was 0.673, the relative viability (Ponatinib + Trametinib; first compound 0.2 µM) was 0.579 and the relative viability (Ponatinib + Decitabine; first compound 0.002 µM) was 0.713. For the same cell line, the relative viability (Ponatinib + Decitabine; first compound 0.006325 µM) was 0.693, the relative viability (Ponatinib + Decitabine; first compound 0.06325 µM) was 0.759 and the relative viability (Ponatinib + Decitabine; first compound 0.2 µM) was 0.722.
With SW 900 the relative viability (Ponatinib + Phenformin; first compound 0.002 µM) was 0.491, the relative viability (Ponatinib + Phenformin; first compound 0.006325 µM) was 0.496 and the relative viability (Ponatinib + Phenformin; first compound 0.06325 µM) was 0.682. The relative viability (Ponatinib + Phenformin; first compound 0.2 µM) was 0.416, the relative viability (Ponatinib + Trametinib; first compound 0.002 µM) was 1 and the relative viability (Ponatinib + Trametinib; first compound 0.006325 µM) was 0.967. It also gave a relative viability (Ponatinib + Trametinib; first compound 0.06325 µM) of 0.762, a relative viability (Ponatinib + Trametinib; first compound 0.2 µM) of 0.873 and a relative viability (Ponatinib + Decitabine; first compound 0.002 µM) of 0.447. For the same cell line, the relative viability (Ponatinib + Decitabine; first compound 0.006325 µM) was 0.43, the relative viability (Ponatinib + Decitabine; first compound 0.06325 µM) was 0.518 and the relative viability (Ponatinib + Decitabine; first compound 0.2 µM) was 0.481.
